# Where “and” joins values, the source holds several entries; their conditions need not be identical. Equal values may be shown once. Inconclusive results and toxic doses are left out.
# System: CD2F1 mice, L1210 leukemia ip, survival T/C
# Assay: NCI In Vivo Anticancer Drug Screen. Data for tumor model L1210 Leukemia (intraperitoneal) in CD2F1 (CDF1) mice
# Conditions: higher = longer survival
# Summary of the method: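 Activity against a transplanted murine tumor was judged by comparing the compound group with a vehicle group. The outcome in the treated animals was divided by that in the controls.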
# [1] = endpoint: mean survival time, dose: 100.0 mg/kg/injection, schedule: Q04DX002 (ip), vehicle: saline with Tween-80
# [2] = endpoint: mean survival time, dose: 100.0 mg/kg/injection, schedule: Q04DX003 (ip), vehicle: saline with Tween-80
# [3] = endpoint: mean survival time, dose: 200.0 mg/kg/injection, schedule: Q04DX003 (ip), vehicle: saline with Tween-80
# [4] = endpoint: mean survival time, dose: 400.0 mg/kg/injection, schedule: Q04DX003 (ip), vehicle: saline with Tween-80
# [5] = endpoint: mean survival time, dose: 50.0 mg/kg/injection, schedule: Q01DX009 (ip), vehicle: saline with Tween-80
# [6] = endpoint: mean survival time, dose: 100.0 mg/kg/injection, schedule: Q01DX009 (ip), vehicle: saline with Tween-80
# [7] = endpoint: mean survival time, dose: 200.0 mg/kg/injection, schedule: Q01DX009 (ip), vehicle: saline with Tween-80
# [8] = endpoint: mean survival time, dose: 400.0 mg/kg/injection, schedule: Q01DX009 (ip), vehicle: saline with Tween-80
# [9] = endpoint: mean survival time, dose: 12.5 mg/kg/injection, schedule: Q01DX005 (ip), vehicle: water
# [10] = endpoint: mean survival time, dose: 25.0 mg/kg/injection, schedule: Q01DX005 (ip), vehicle: water
# [11] = endpoint: mean survival time, dose: 50.0 mg/kg/injection, schedule: Q01DX005 (ip), vehicle: water
# [12] = endpoint: mean survival time, dose: 100.0 mg/kg/injection, schedule: Q01DX005 (ip), vehicle: water
# [13] = endpoint: mean survival time, dose: 25.0 mg/kg/injection, schedule: Q01DX009 (ip), vehicle: saline
# [14] = endpoint: mean survival time, dose: 100.0 mg/kg/injection, schedule: Q01DX001 (ip), vehicle: saline with Tween-80
smiles,measurement,setting,value
CC(=O)NC(CCc1ccc(Cl)c(Cl)c1)c1cccc(O)c(=O)c1 (stereo not drawn),T/C,"endpoint: median survival time, dose: 3.12 mg/kg/injection, schedule: Q01DX009 (ip), vehicle: Klucel (hydroxypropylcellulose) (HPC)",94 % of control
same,T/C,"endpoint: median survival time, dose: 6.25 mg/kg/injection, schedule: Q01DX009 (ip), vehicle: Klucel (hydroxypropylcellulose) (HPC)",100 % of control
same,T/C,"endpoint: median survival time, dose: 12.5 mg/kg/injection, schedule: Q01DX009 (ip), vehicle: Klucel (hydroxypropylcellulose) (HPC)",106 % of control
same,T/C,"endpoint: median survival time, dose: 25.0 mg/kg/injection, schedule: Q01DX009 (ip), vehicle: Klucel (hydroxypropylcellulose) (HPC)",102 % of control
same,T/C,"endpoint: median survival time, dose: 50.0 mg/kg/injection, schedule: Q01DX009 (ip), vehicle: Klucel (hydroxypropylcellulose) (HPC)",103 % of control
same,T/C,"endpoint: median survival time, dose: 100.0 mg/kg/injection, schedule: Q01DX009 (ip), vehicle: Klucel (hydroxypropylcellulose) (HPC)",116 % of control
O=[N+]([O-])c1cccc2c1cc([N+](=O)[O-])c1cccnc12,T/C,"endpoint: mean survival time, dose: 25.0 mg/kg/injection, schedule: Q04DX002 (ip), vehicle: saline with Tween-80",98 % of control
same,T/C,"endpoint: mean survival time, dose: 50.0 mg/kg/injection, schedule: Q04DX002 (ip), vehicle: saline with Tween-80",98 % of control
same,T/C,[1],98 % of control
CCOC(=O)/C(C#N)=C\c1cc([N+](=O)[O-])ccc1Cl,T/C,[2],89 % of control
same,T/C,[3],108 % of control
same,T/C,[4],108 % of control
Cc1cc2nc(Cc3nc4cc(C)c(C)cc4[nH]3)[nH]c2cc1C,T/C,[5],93 % of control
same,T/C,[6],87 % of control
same,T/C,[7],88 % of control
CC(C)OC(N)=O,T/C,"endpoint: mean survival time, dose: 100.0 mg/kg/injection, schedule: Q01DX001 (ip), vehicle: saline",94 % of control
same,T/C,[6],106 % of control
same,T/C,"endpoint: mean survival time, dose: 100.0 mg/kg/injection, schedule: Q04DX003 (ip), vehicle: saline",97 % of control
same,T/C,"endpoint: mean survival time, dose: 200.0 mg/kg/injection, schedule: Q01DX001 (ip), vehicle: saline",102 % of control
same,T/C,[7],103 % of control
same,T/C,"endpoint: mean survival time, dose: 200.0 mg/kg/injection, schedule: Q04DX003 (ip), vehicle: saline",101 % of control
same,T/C,"endpoint: mean survival time, dose: 400.0 mg/kg/injection, schedule: Q01DX001 (ip), vehicle: saline",100 % of control
same,T/C,[8],105 % of control
same,T/C,"endpoint: mean survival time, dose: 400.0 mg/kg/injection, schedule: Q04DX003 (ip), vehicle: saline",100 % of control
CN(C)N=Nc1ccc(C(F)(F)F)cc1,T/C,"endpoint: mean survival time, dose: 118.0 mg/kg/injection, schedule: Q01DX009 (ip), vehicle: Klucel (hydroxypropylcellulose) (HPC)",101 % of control
same,T/C,"endpoint: mean survival time, dose: 177.0 mg/kg/injection, schedule: Q01DX009 (ip), vehicle: Klucel (hydroxypropylcellulose) (HPC)",102 % of control
CC1(C)CC(OP(=O)(c2ccccc2)c2ccccc2)CC(C)(C)N1O,T/C,"endpoint: mean survival time, dose: 100.0 mg/kg/injection, schedule: Q04DX003 (ip), vehicle: water",106 % of control
same,T/C,"endpoint: mean survival time, dose: 200.0 mg/kg/injection, schedule: Q04DX003 (ip), vehicle: water",91 % of control
same,T/C,"endpoint: mean survival time, dose: 400.0 mg/kg/injection, schedule: Q04DX003 (ip), vehicle: water",102 % of control
COC1(OC)CCC(OC)(OC)C(OC)(OC)C1(OC)OC,T/C,[2],96 % of control
same,T/C,[3],94 % of control
same,T/C,[4],102 % of control
Cc1ccc(C2=C(O)C(=O)C(c3ccc(C)cc3)=C(O)C2=O)cc1,T/C,"endpoint: mean survival time, dose: 75.0 mg/kg/injection, schedule: Q01DX001 (ip), vehicle: other",105 % of control
same,T/C,"endpoint: mean survival time, dose: 150.0 mg/kg/injection, schedule: Q01DX001 (ip), vehicle: other",102 % of control
O=c1[nH]c(=S)ccn1C1OC(COP(=O)(O)O)C(O)C1O (stereo not drawn),T/C,[9],98 % of control
same,T/C,[10],103 % of control
same,T/C,[11],103 % of control
same,T/C,[12],103 % of control
same,T/C,"endpoint: mean survival time, dose: 200.0 mg/kg/injection, schedule: Q01DX005 (ip), vehicle: water",103 % of control
COC1=c2\cccc\c2=N\C(OC)=c2\cccc\c2=N\1,T/C,[2],101 % of control
same,T/C,[3],101 % of control
same,T/C,[4],98 % of control
CC1Cc2c3ccc4ccccc4c3cc3cccc1c23 (stereo not drawn) (tested in a mixture with another compound),T/C,"endpoint: mean survival time, dose: 75.0 mg/kg/injection, schedule: Q04DX002 (ip), vehicle: saline with Tween-80",105 % of control
same,T/C,"endpoint: mean survival time, dose: 150.0 mg/kg/injection, schedule: Q04DX002 (ip), vehicle: saline with Tween-80",105 % of control
same,T/C,"endpoint: mean survival time, dose: 300.0 mg/kg/injection, schedule: Q04DX002 (ip), vehicle: saline with Tween-80",97 % of control
O=C(C[n+]1ccccc1)N/N=C/c1c(O)ccc2ccccc12,T/C,"endpoint: mean survival time, dose: 25.0 mg/kg/injection, schedule: Q01DX009 (ip), vehicle: saline with Tween-80",100 % of control
same,T/C,[5],99 % of control
same,T/C,[6],99 % of control
CC(C)OC(=O)c1cc([N+](=O)[O-])cc([N+](=O)[O-])c1Sc1ncnc2nc[nH]c12,T/C,"endpoint: mean survival time, dose: 0.63 mg/kg/injection, schedule: Q01DX005 (ip), vehicle: other",115 % of control
same,T/C,"endpoint: mean survival time, dose: 1.25 mg/kg/injection, schedule: Q01DX005 (ip), vehicle: other",118 % of control
same,T/C,"endpoint: mean survival time, dose: 2.5 mg/kg/injection, schedule: Q01DX005 (ip), vehicle: other",115 % of control
same,T/C,"endpoint: mean survival time, dose: 18.8 mg/kg/injection, schedule: Q01DX005 (ip), vehicle: other",156 % of control
O=P(O)(O)OCC1OC(n2cnc3c(NCc4ccco4)ncnc32)C(O)C1O (stereo not drawn),T/C,[9],106 % of control
same,T/C,[10],106 % of control
same,T/C,[11],103 % of control
same,T/C,[12],106 % of control
CCCCCCCCCCCC#N,T/C,"endpoint: mean survival time, dose: 100.0 mg/kg/injection, schedule: Q04DX003 (ip), vehicle: Klucel (hydroxypropylcellulose) (HPC)",102 % of control
same,T/C,"endpoint: mean survival time, dose: 200.0 mg/kg/injection, schedule: Q04DX003 (ip), vehicle: Klucel (hydroxypropylcellulose) (HPC)",97 % of control
same,T/C,"endpoint: mean survival time, dose: 400.0 mg/kg/injection, schedule: Q04DX003 (ip), vehicle: Klucel (hydroxypropylcellulose) (HPC)",104 % of control
CC(=O)OCCN1CCN(CC/C=C2\c3ccccc3Sc3ccc(Cl)cc32)CC1,T/C,"endpoint: mean survival time, dose: 3.13 mg/kg/injection, schedule: Q01DX009 (ip), vehicle: saline",100 % of control
same,T/C,"endpoint: mean survival time, dose: 6.25 mg/kg/injection, schedule: Q01DX009 (ip), vehicle: saline",116 % of control and 105 % of control
same,T/C,"endpoint: mean survival time, dose: 6.25 mg/kg/injection, schedule: Q04DX003 (ip), vehicle: saline",98 % of control
same,T/C,"endpoint: mean survival time, dose: 12.5 mg/kg/injection, schedule: Q01DX009 (ip), vehicle: saline",117 % of control and 123 % of control
same,T/C,"endpoint: mean survival time, dose: 12.5 mg/kg/injection, schedule: Q04DX003 (ip), vehicle: saline",89 % of control
same,T/C,[13],117 % of control
same,T/C,"endpoint: mean survival time, dose: 25.0 mg/kg/injection, schedule: Q04DX003 (ip), vehicle: saline",98 % of control and 111 % of control
same,T/C,"endpoint: mean survival time, dose: 50.0 mg/kg/injection, schedule: Q04DX003 (ip), vehicle: saline",101 % of control
COC(=O)C#CC(c1ccccc1)(c1ccccc1)c1ccccc1,T/C,[6],103 % of control
same,T/C,[7],101 % of control
same,T/C,[8],109 % of control
Cc1cc[n+](-c2c3c(nc4ccccc24)-c2ccccc2C(C)(C)C3)cc1,T/C,"endpoint: mean survival time, dose: 25.0 mg/kg/injection, schedule: Q04DX003 (ip), vehicle: saline sonified",96 % of control
same,T/C,"endpoint: mean survival time, dose: 50.0 mg/kg/injection, schedule: Q04DX003 (ip), vehicle: saline sonified",102 % of control
same,T/C,[14],96 % of control
C=CC(=O)N1CCN(C(=O)C=C)c2cc(C)c(C)cc21,T/C,[13],101 % of control
same,T/C,"endpoint: mean survival time, dose: 50.0 mg/kg/injection, schedule: Q01DX009 (ip), vehicle: saline",101 % of control
same,T/C,"endpoint: mean survival time, dose: 100.0 mg/kg/injection, schedule: Q01DX009 (ip), vehicle: saline",100 % of control
COc1ccc(OC)c(NC(=S)NC(=O)c2cccc(Br)c2)c1,T/C,[14],93 % of control
same,T/C,[6],95 % of control and 96 % of control
same,T/C,[1],94 % of control and 100 % of control
same,T/C,[2],95 % of control
same,T/C,"endpoint: mean survival time, dose: 200.0 mg/kg/injection, schedule: Q01DX001 (ip), vehicle: saline with Tween-80",88 % of control
same,T/C,[7],95 % of control and 100 % of control
same,T/C,"endpoint: mean survival time, dose: 200.0 mg/kg/injection, schedule: Q04DX002 (ip), vehicle: saline with Tween-80",94 % of control and 100 % of control
same,T/C,[3],91 % of control
same,T/C,"endpoint: mean survival time, dose: 400.0 mg/kg/injection, schedule: Q01DX001 (ip), vehicle: saline with Tween-80",89 % of control
same,T/C,[8],92 % of control and 100 % of control
same,T/C,"endpoint: mean survival time, dose: 400.0 mg/kg/injection, schedule: Q04DX002 (ip), vehicle: saline with Tween-80",89 % of control and 100 % of control
same,T/C,[4],95 % of control
